Experimental data as given in US10420341B2, “Herbicidal phenylpyrimidines” (BASF SE, priority 2015, dated 2019).

Experiments:
ECHCG [1] = experiment: greenhouse post-emergence herbicidal test; format: in vivo, Echinocloa crus-galli; conditions: post-emergence method, scale from 0 to 100
Method in brief: (§1)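 Read-out is a visual 0–100 injury rating, 100 meaning complete destruction of at least aerial parts and 0 meaning normal growth. It was taken over 2–4 weeks after plants 3–15 cm tall were treated with compound suspended or emulsified in water.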

AMARE = experiment: greenhouse post-emergence herbicidal test; format: in vivo, Amaranthus retroflexus; conditions: post-emergence method, scale from 0 to 100
Method in brief: as §1

SETVI = experiment: greenhouse post-emergence herbicidal test; format: in vivo, Setaria viridis; conditions: post-emergence method, scale from 0 to 100
Text: (§2) The seeds of the test plants were sown separately for each species. For the post-emergence treatment, the test plants were first grown to a height of 3 to 15 cm, depending on the plant habit, and only then treated with the active ingredients which had been suspended or emulsified in water. For this purpose, the test plants were either sown directly and grown in the same containers, or they were first grown separately as seedlings and transplanted into the test containers a few days prior to treatment. Depending on the species, the plants were kept at 10-25° C. or 20-35° C., respectively. The test period extended over 2 to 4 weeks. During this time, the plants were tended, and their response to the individual treatments was evaluated. Evaluation was carried out using a scale from 0 to 100. 100 means no emergence of the plants, or complete destruction of at least the aerial moieties, and 0 means no damage, or normal course of growth. […] The plants used in the greenhouse experiments were of the following species: [table]

ABUTH = experiment: greenhouse post-emergence herbicidal test; format: in vivo, Abutilon theophrasti; conditions: post-emergence method, scale from 0 to 100
Method in brief: as §1

APESV = experiment: greenhouse pre-emergence herbicidal test; format: in vivo, Apera spica-venti; conditions: pre-emergence method, scale from 0 to 100
Method in brief: (§3)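 Rated on a 0 (normal growth) to 100 (no emergence/total aerial kill) scale over a 2-4 week test period. Aqueous suspensions or emulsions applied by fine nozzles right after sowing, then plants held under hoods at 10-25 °C or 20-35 °C depending on species.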

SETFA = experiment: greenhouse pre-emergence herbicidal test; format: in vivo, Setaria faberi; conditions: pre-emergence method, scale from 0 to 100
Text: The seeds of the test plants were sown separately for each species. For the pre-emergence treatment, the active ingredients, which had been suspended or emulsified in water, were applied directly after sowing by means of finely distributing nozzles. The containers were irrigated gently to promote germination and growth and subsequently covered with transparent plastic hoods until the plants had rooted. This cover caused uniform germination of the test plants, unless this had been impaired by the active ingredients. Depending on the species, the plants were kept at 10-25° C. or 20-35° C., respectively. The test period extended over 2 to 4 weeks. During this time, the plants were tended, and their response to the individual treatments was evaluated. Evaluation was carried out using a scale from 0 to 100. 100 means no emergence of the plants, or complete destruction of at least the aerial moieties, and 0 means no damage, or normal course of growth. […] The plants used in the greenhouse experiments were of the following species: [table]

ECHCG [2] = experiment: greenhouse pre-emergence herbicidal test; format: in vivo, Echinocloa crus-galli; conditions: pre-emergence method, scale from 0 to 100
Method in brief: as §3

ALOMY = experiment: greenhouse post-emergence herbicidal test; format: in vivo, Alopercurus myosuroides; conditions: post-emergence method, application rate 1000 g/ha, scale from 0 to 100
Method in brief: as §1

AVEFA = experiment: greenhouse post-emergence herbicidal test; format: in vivo, Avena fatua; conditions: post-emergence method, application rate 1000 g/ha, scale from 0 to 100
Method in brief: as §1

POLCO = experiment: greenhouse post-emergence herbicidal test; format: in vivo, Polygonum convolvulus; conditions: post-emergence method, application rate 500 g/ha, scale from 0 to 100
Method in brief: as §1

LOLMU = experiment: greenhouse post-emergence herbicidal test; format: in vivo, Lolium multiflorum; conditions: post-emergence method, application rate 500 g/ha, scale from 0 to 100
Text: as §2

CSc1ncc(-c2ccc(C(F)(F)F)cc2C)c(C(=O)O)n1 [example 99]
herbicidal activity against ECHCG (ECHCG [1]; application rate 2000 g/ha): good (A good herbicidal activity is given at values of at least 70) | herbicidal activity against AMARE (AMARE; application rate 2000 g/ha): very good (a very good herbicidal activity is given at values of at least 85) | herbicidal activity against SETVI (SETVI; application rate 2000 g/ha): very good (a very good herbicidal activity is given at values of at least 85)

Cc1cc(F)c(-c2cnc(C3CC3)nc2C(=O)O)cc1Cl [example 137]
herbicidal activity against AMARE (AMARE; application rate 1000 g/ha): very good (a very good herbicidal activity is given at values of at least 85) | herbicidal activity against SETVI (SETVI; application rate 1000 g/ha): very good (a very good herbicidal activity is given at values of at least 85)

COC(=O)c1nc(C2CCC2)ncc1-c1ccccc1C [example 264]
herbicidal activity against AMARE (AMARE; application rate 1000 g/ha): very good (a very good herbicidal activity is given at values of at least 85) | herbicidal activity against ABUTH (ABUTH; application rate 1000 g/ha): very good (a very good herbicidal activity is given at values of at least 85) | herbicidal activity against APESV (APESV; application rate 1000 g/ha): good (A good herbicidal activity is given at values of at least 70) | herbicidal activity against SETFA (SETFA; application rate 1000 g/ha): very good (a very good herbicidal activity is given at values of at least 85)

CSc1ncc(-c2ccc(C#N)cc2C)c(C(=O)O)n1 [example 96]
herbicidal activity against AMARE (AMARE; application rate 2000 g/ha): very good (a very good herbicidal activity is given at values of at least 85) | herbicidal activity against SETVI (SETVI; application rate 2000 g/ha): very good (a very good herbicidal activity is given at values of at least 85)

COC(=O)c1nc(C(C)C)ncc1-c1ccccc1C [example 37]
herbicidal activity against ECHCG (ECHCG [1]; application rate 1000 g/ha): very good (a very good herbicidal activity is given at values of at least 85) | herbicidal activity against SETFA (SETFA; application rate 1000 g/ha): very good (a very good herbicidal activity is given at values of at least 85) | herbicidal activity against ECHCG (ECHCG [2]; application rate 1000 g/ha): very good (a very good herbicidal activity is given at values of at least 85)

O=C(O)c1nc(C2CC2)ncc1-c1c(F)cccc1I [example 317]
herbicidal activity against APESV (APESV; application rate 1000 g/ha): very good (a very good herbicidal activity is given at values of at least 85) | herbicidal activity against SETVI (SETVI; application rate 1000 g/ha): very good (a very good herbicidal activity is given at values of at least 85) | herbicidal activity against ALOMY (ALOMY): very good (a very good herbicidal activity is given at values of at least 85) | herbicidal activity against AVEFA (AVEFA): very good (a very good herbicidal activity is given at values of at least 85) | herbicidal activity against ECHCG (ECHCG [2]; application rate 1000 g/ha): very good (a very good herbicidal activity is given at values of at least 85)

O=C(O)c1nc(C2CCC2)ncc1-c1ccccc1Cl [example 2, 5-(2-Chlorophenyl)-2-cyclobutyl-pyrimidine-4-carboxylate]
herbicidal activity against ECHCG (ECHCG [1]; application rate 1000 g/ha): good (A good herbicidal activity is given at values of at least 70) | herbicidal activity against ABUTH (ABUTH; application rate 1000 g/ha): good (A good herbicidal activity is given at values of at least 70) | herbicidal activity against SETFA (SETFA; application rate 1000 g/ha): good (A good herbicidal activity is given at values of at least 70)

Cc1ccccc1-c1cnc(-c2ccccc2)nc1C(=O)O [example 271]
herbicidal activity against ECHCG (ECHCG [1]; application rate 500 g/ha): very good (a very good herbicidal activity is given at values of at least 85) | herbicidal activity against ABUTH (ABUTH; application rate 500 g/ha): very good (a very good herbicidal activity is given at values of at least 85) | herbicidal activity against SETFA (SETFA; application rate 500 g/ha): good (A good herbicidal activity is given at values of at least 70)

CCc1ncc(-c2cc(C)ccc2C)c(C(=O)O)n1 [example 9]
herbicidal activity against AMARE (AMARE; application rate 1000 g/ha): good (A good herbicidal activity is given at values of at least 70) | herbicidal activity against ABUTH (ABUTH; application rate 1000 g/ha): very good (a very good herbicidal activity is given at values of at least 85) | herbicidal activity against APESV (APESV; application rate 1000 g/ha): very good (a very good herbicidal activity is given at values of at least 85) | herbicidal activity against SETFA (SETFA; application rate 1000 g/ha): very good (a very good herbicidal activity is given at values of at least 85)

COC(=O)c1nc(C2CC2)ncc1-c1c(Cl)cccc1C(F)(F)F [example 302]
herbicidal activity against ECHCG (ECHCG [1]; application rate 1000 g/ha): very good (a very good herbicidal activity is given at values of at least 85) | herbicidal activity against AMARE (AMARE; application rate 1000 g/ha): very good (a very good herbicidal activity is given at values of at least 85) | herbicidal activity against SETFA (SETFA; application rate 1000 g/ha): very good (a very good herbicidal activity is given at values of at least 85)

Cc1ccc(Cl)c(-c2cnc(C3CC3)nc2C(=O)O)c1 [example 144]
herbicidal activity against APESV (APESV; application rate 500 g/ha): very good (a very good herbicidal activity is given at values of at least 85) | herbicidal activity against POLCO (POLCO): very good (a very good herbicidal activity is given at values of at least 85) | herbicidal activity against SETVI (SETVI; application rate 500 g/ha): very good (a very good herbicidal activity is given at values of at least 85) | herbicidal activity against ECHCG (ECHCG [2]; application rate 500 g/ha): very good (a very good herbicidal activity is given at values of at least 85)

Cc1ccc(C)c(-c2cnc(C(C)C)nc2C(=O)O)c1 [example 34]
herbicidal activity against ECHCG (ECHCG [1]; application rate 500 g/ha): very good (a very good herbicidal activity is given at values of at least 85) | herbicidal activity against APESV (APESV; application rate 500 g/ha): very good (a very good herbicidal activity is given at values of at least 85) | herbicidal activity against LOLMU (LOLMU): good (A good herbicidal activity is given at values of at least 70) | herbicidal activity against ECHCG (ECHCG [2]; application rate 500 g/ha): very good (a very good herbicidal activity is given at values of at least 85)

CCOC(=O)c1nc(OC)ncc1-c1cc(C)c(F)cc1C [example 64]
herbicidal activity against AMARE (AMARE; application rate 1000 g/ha): very good (a very good herbicidal activity is given at values of at least 85) | herbicidal activity against SETVI (SETVI; application rate 1000 g/ha): very good (a very good herbicidal activity is given at values of at least 85) | herbicidal activity against ALOMY (ALOMY): very good (a very good herbicidal activity is given at values of at least 85)

CCOc1cccc(Br)c1-c1cnc(C2CC2)nc1C(=O)O [example 303]
herbicidal activity against ECHCG (ECHCG [1]; application rate 1000 g/ha): very good (a very good herbicidal activity is given at values of at least 85) | herbicidal activity against APESV (APESV; application rate 1000 g/ha): very good (a very good herbicidal activity is given at values of at least 85) | herbicidal activity against SETFA (SETFA; application rate 1000 g/ha): very good (a very good herbicidal activity is given at values of at least 85)

COC(=O)c1nc(C2CC2)ncc1-c1c(Br)ccc(C)c1F [example 198]
herbicidal activity against ABUTH (ABUTH; application rate 500 g/ha): very good (a very good herbicidal activity is given at values of at least 85) | herbicidal activity against APESV (APESV; application rate 500 g/ha): very good (a very good herbicidal activity is given at values of at least 85) | herbicidal activity against SETVI (SETVI; application rate 500 g/ha): very good (a very good herbicidal activity is given at values of at least 85) | herbicidal activity against ECHCG (ECHCG [2]; application rate 500 g/ha): very good (a very good herbicidal activity is given at values of at least 85)

Cc1ccccc1-c1cnc(S(C)(=O)=O)nc1C(=O)O [example 127]
herbicidal activity against SETFA (SETFA; application rate 2000 g/ha): good (A good herbicidal activity is given at values of at least 70)

CSc1ncc(-c2cc(C)ccc2Cl)c(C(=O)O)n1 [example 86]
herbicidal activity against SETFA (SETFA; application rate 1000 g/ha): good (A good herbicidal activity is given at values of at least 70) | herbicidal activity against ECHCG (ECHCG [2]; application rate 1000 g/ha): good (A good herbicidal activity is given at values of at least 70)

CSc1ncc(-c2ccccc2S(C)(=O)=O)c(C(=O)O)n1 [example 114]
herbicidal activity against SETFA (SETFA; application rate 2000 g/ha): very good (a very good herbicidal activity is given at values of at least 85)

COC(=O)c1nc(C2CC2)ncc1-c1cc(OC)ccc1Cl [example 206]
herbicidal activity against ECHCG (ECHCG [1]; application rate 500 g/ha): good (A good herbicidal activity is given at values of at least 70) | herbicidal activity against APESV (APESV; application rate 500 g/ha): very good (a very good herbicidal activity is given at values of at least 85) | herbicidal activity against SETVI (SETVI; application rate 500 g/ha): good (A good herbicidal activity is given at values of at least 70) | herbicidal activity against ECHCG (ECHCG [2]; application rate 500 g/ha): very good (a very good herbicidal activity is given at values of at least 85)
